Here are results for 1 molecule from patent publication US7279332B2, “Method of isolating ependymal neural stem cells” (NeuroNova AB, priority 1998, dated 2007).

In this assay the test system is nigral dopamine neurons (substantia nigra pars compact). Kind of assay: Quantitative in vivo neurogenesis in substantia nigra pars compact after DiI labeling of ependymal cells. The note with it: mice. As to the method: Adult rats and mice were given DiI through intraventricular injections as described in the example above. At various time intervals after the injection (hours-months), the animals were transcardially perfused with 15 ml 0.9% saline, followed by 50 ml of +4° C. 4% (w/v) paraformaldehyde and 0.4% (v/v) picric acid in 0.1 M phosphate buffered saline, pH 6.9, during 5 min. After brain removal, the tissue was fixed for an additional 90 minutes in the same fixative and cryoprotected in buffered sucrose (10% for 24 h, 30% for 2 days) at +4° C. The entire midbrain was cut with a cryostat using a systematic, uniform random sampling design, where 40 μm thick frontal sections were taken to six parallel rostrocaudal series. One series of sections was kept in 0.1 M PBS and the fluorescent signal was immediately converted to a permanent diaminobenzidine (DAB) signal using a modified previously described protocol (Singleton et al., J. Neurosci. Meth. 64:47). […] The photoconversion process was carefully evaluated and when all the fluorescent signal in substantia nigra was visualized with the brown DAB product, the sections were immunohistochemically labeled with a marker (Vector SG, Vector) for dopamine neurons (tyrosine hydroxylase) utilizing the avidin-biotin-immunoperoxidase system (Vector) (Janson et al., Neuroscience 57:931). The five parallel series of sections were instead stored in 30% sucrose in 0.1 M PBS at −20° C. until they were processed for immunohistochemistry and analyzed in a confocal laser scanning microscope utilizing several markers for glia and neurons (with appropriate controls) to determine the neuronal phenotype of the DiI labeled cells in substantia nigra pars compact (FIG. 8).
Quantitative estimates of the total number of TH immunoreactive cell bodies counterstained with cresyl violet (TH/CV+ neurons) as well as TH immunoreactive cell bodies also containing DiI label were made in the bilateral SNc. Neuronal counts were determined using coded sections and a stereological technique, the optical fractionator (Janson et al., Neuroscience 57:931). […]

For `CN1CC=C(c2ccccc2)CC1` [MPTP, 1-methyl-4-phenyl-1,2,3,6-tetrahydropyridine], the “number of TH+/DiI+ nigral neurons” value (MPTP 40 mg/kg sc. vs vehicle) is “higher numbers of TH+/DiI+ nigral neurons”. The “migratory streams of DiI+ cells in the midbrain” value (MPTP 40 mg/kg sc. vs vehicle, qualitative appearance) was “appeared more pronounced”. For the same molecule, the “increase in number of new neurons generated each week in substantia nigra, compared to animals treated with vehicle alone” value (MPTP 40 mg/kg sc., regression curve (r^2=0.744) of counts at a few hours to 2 months) is reported as 24%.
